Data reported in the NIST ThermoML archive (doi:10.1016/j.fluid.2013.03.030).
Numbers after ± are expanded uncertainties.

Tests used:
[1] = wn = mass fraction of the nth substance listed; details: 298.15 K, 100 kPa, Liquid; for viscosity: Capillary tube (Ostwald / Ubbelohde) method; for mass density: Vibrating tube method
[2] = xn = mol fraction of the nth substance listed; details: 298.15 K, 100 kPa, Liquid, Sing-around technique in a fixed-path interferometer
[3] = refractive index (other wavelength) (dimensionless); wn = mass fraction of the nth substance listed; details: 298.15 K, 100 kPa, Liquid, Wavelength=589.3 nm, Digital Refractometer Mettler Toledo

CCCC[P+](CCCC)(CCCC)CCCC.F[B-](F)(F)F [tetrabutylphosphonium tetrafluoroborate] + O
Details	mass density, [1] [kg/m3]	refractive index, [3]	speed of sound, [2] [m/s]	viscosity, [1] [mPa·s]
w1 = 0.001	997.16 ± 5.4	1.3326 ± 0.0011	–	0.901 ± 0.024
w1 = 0.003	998.67 ± 5.4	1.3333 ± 0.0011	–	0.909 ± 0.024
w1 = 0.005	1000.05 ± 5.4	1.3341 ± 0.0011	–	0.914 ± 0.024
x1 = 0.001	–	–	1498.9 ± 5.1	–
x1 = 0.003	–	–	1502.6 ± 5.1	–
x1 = 0.005	–	–	1507.5 ± 5	–
